Assay results from PMC10974272, “Cytotoxic and Antiproliferative Activity of LASSBio-2208 and the Attempts to Determine Its Drug Metabolism and Pharmacokinetics In Vitro Profile” (Pharmaceuticals, 2024).

What was measured:
[1] = system: HDAC8; settings: cited from earlier work
[2] = system: MCF-7; experiment: SRB cell viability/antiproliferative assay, MCF-7; settings: Homo sapiens, MCF7, 48 h; for Emax: SRB 48 h, MCF-7, maximum effect at maximum concentration used
[3] = system: human prostate cancer cell line (PC-3); experiment: MTT cell viability assay, PC-3; settings: Homo sapiens
Description: (§5) After the incubation time, the plate was centrifuged (Universal centrifuge 320R Hettich, Kirchlengern, Germany) at 440× g, 10 min and 4 °C, then 110 µL of supernatant was removed and 10 µL of MTT solution was added and left to incubate for 3.5 h in the oven at 37 °C and 5% CO2. […] The CC50 was calculated using the GraphPad Prism 9.0 program. Each sample was tested in triplicate in three independent experiments (N3) [32, 33].

[4] = Plasma stability; assay type: in vitro ADME, rat; settings: for recovery at 10 μM / half-life at 10 μM: rat plasma diluted with phosphate buffer, pH 7.4; for recovery at 10 μM: rat plasma stability assay; for metabolic stability in rat plasma (in words) / half-life at 10 μM / Elimination Rate Constant (k) / Metabolization Rate: rat plasma; for half-life at 10 μM / Elimination Rate Constant (k) / Metabolization Rate: 37 °C, 10 μM; for Metabolization Rate: 0–240 min
Description: Considering that both LASSBio-2208 and LASSBio-1911 have, in their structures, the N-acylhydrazone and hydroxamic acid fragments, both susceptible to metabolic hydrolysis, metabolic stability in plasma was conducted with both compounds.
LASSBio-2208 and LASSBio-1911, in a final concentration of 10 μM from stock solution of 1 mM, was added in 50 μL of rat plasma solution diluted in 250 μL with phosphate buffer (pH 7.4) and was placed in a shaker at 37 °C under vigorous stirring for 0, 30, 60, 120 and 240 min. After each reaction time, 1 mL of cold acetonitrile containing 2 uM internal standard was added to the wells to stop the reaction. The solution was mixed and centrifuged at 24,500× g for 15 min (Universal Centrifuge 320R Hettich). The supernatant (1 mL) was filtrated and placed in vials to be analysed by HPLC.

[5] = PAMPA—BBB; assay type: in vitro ADME; set-up: key to Classification BBB: permeable (CNS+); non-permeable (CNS−); settings: for Papp: read-out: Pe. Exp. BBB
Description: To obtain information on the permeability potential of LASSBio-2208 on cell membranes, this derivative was tested using the parallel artificial membrane permeability assay (PAMPA) that is used as an in vitro model of passive diffusion and transcellular permeation. In this model, the permeability across two artificial membranes is measured: brain lipid from pig extract in dodecane (called PAMPA—BBB) and L-α soy phosphatidylcholine in dodecane (called PAMPA—TGI).
To perform the permeability assay we used a donor plate where the compounds (tests or controls) are diluted in a buffered medium, characterized by the presence of a synthetic membrane of polyvinylidene fluoride (PVDF) impregnated with a lipid solution, forming a barrier through which the compounds migrate through a diffusion process to the lower plate called the receptor.
The lipid mixture that impregnates the filter has a different constitution for the permeability tests for the blood–brain barrier (brain lipid from pig extract in dodecane) and gastrointestinal tract (L-α soy phosphatidylcholine in dodecane). In the PAMPA—BBB and PAMPA—GIT assays, the optical density values obtained in the reading at each selected wavelength, for each of the compounds were analysed in comparison with the values of several controls. In the case of the BBB, these values were used to elaborate an equation and determine the permeability coefficient (Pe), using a previously elaborated spreadsheet, and, for the PAMPA—GIT, these values were used to determine the absorbed fraction (Fa%), both using the Excel program. The permeability result for PAMPA—GIT classifies the compounds according to the percentage of absorbed fraction (Fa%), as follows: high intestinal permeability (70–100%), medium permeability (30–69%) or low permeability (0–29%), and the samples were diluted from a stock solution of 10 mM. The PAMPA—BBB model classifies the compounds only as follows: permeable (CNS+) or non-permeable (CNS−) and the assays were made from a stock solution of 1 mg for each compound [25, 40, 41, 42].

[6] = system: PC-3; experiment: SRB cell viability/antiproliferative assay, PC-3; settings: for Emax: SRB 48 h, PC-3, maximum effect at maximum concentration used
[7] = system: CCRF-CEM; experiment: SRB cell viability/antiproliferative assay, CCRF-CEM; settings: Homo sapiens, 48 h
[8] = system: T lymphoblast cell line (MOLT-4); experiment: MTT cell viability assay, MOLT-4; settings: Homo sapiens
Description: as §5

[9] = system: HDAC-6; settings: cited from earlier work
[10] = system: breast cancer cell line (MCF-7); experiment: MTT cell viability assay, MCF-7; settings: Homo sapiens
Description: as §5

[11] = system: human peripheral blood mononuclear cells (hPBMC); experiment: PBMC viability assay by MTT; assay type: cell-based; settings: MTT 48 h; for Emax: human PBMC, maximum cytotoxic response at 100 µM; for CC50: non-tumour human PBMC
Description: (§1) The SI indicates how selective a compound is for a tumour cell line compared with a non-tumour cell line.
(§2) Human peripheral blood mononuclear cells (PBMCs) were used to determine the selectivity index (SI) and were obtained from healthy volunteers under a protocol approved by the Ethics Committee CAAE: 38257914.7.0000.5259. Immortalized cells were also obtained from the Rio de Janeiro Cell Bank (BCRJ).
(§3) First, 8 mL of blood from each healthy donor (3 people) was collected in a tube with EDTA in a 1:20 ratio to prevent the blood from clotting. In a 15 mL Falcon tube containing 4 mL of Ficoll-Paque, the 8 mL of blood collected was slowly added, letting it fall down the walls of the tube. It was centrifuged (Universal Centrifuge 320R Hettich) for 40 min at 750× g at 21 °C with acceleration 1 and brake 0. After centrifugation, in order to extract the ring of mononuclear cells, the supernatant above it was first carefully discarded so as not to disturb the ring. The ring was then slowly removed and placed in another 15 mL Falcon tube to which pure RPMI-1640 medium was added in a 1:1 ratio and centrifuged for 10 min at 580× g and 21 °C with acceleration 8 and brake 9 [34, 35].
(§4) The supernatant was discarded, and the pellet was resuspended in 1 mL of RPMI-1640 medium supplemented with 10% SBF and 1% antibiotic. An amount of 20 µL of cells were taken from the mixture and added to 380 µL of trypan blue dye for counting in the Neubauer chamber. Considering that 80% of PBMCs are lymphocytes and the rest are monocytes, the cells were plated with the aim of having 10^5 cell/well.

[12] = PBMC viability assay by MTT; assay type: cell-based, human; settings: MTT 48 h, non-tumour human PBMC
Description: as §1, §2, §3, §4

SMILES | IC50 [1] [nM] | CC50 [2] [µM] | Emax [2] [%] | CC50 ([3]; 24 h) [µM] | Emax ([3]; 24 h) [%] | CC50 ([3]; 48 h) [µM] | Emax ([3]; 48 h) [%] | CC50 ([3]; 72 h) [µM] | Emax ([3]; 72 h) [%] | metabolic stability in rat plasma (in words) [4] | recovery at 10 μM [4] [%] | half-life at 10 μM [4] [min] | Elimination Rate Constant (k) [4] | Metabolization Rate [4] [%] | Classification BBB [5] | Papp [5] [×10⁻⁶ cm/s] | CC50 ([6]; Homo sapiens, PC-3, 48 h) [µM] | Emax ([6]; Homo sapiens, PC-3, 48 h) [%] | CC50 [7] [µM] | CC50 ([8]; MOLT-4, 24 h) [µM] | further results
CN(C)c1ccc(C(=O)N/N=C/c2ccc(C(=O)NO)cc2)cc1 [LASSBio-1911] | 230 | 39.1 | > 80 | > 100 | 26.4 | > 100 | 42.6 | 77.1 | 59.2 | high metabolic stability | 73.4 | 385 | 0.0018 | 36.14 | CNS− | 0.29 | > 100 | < 35 | 25.2 | 13.8 | Emax [6]: 34.04%; Emax [7]: 69.2%; Emax ([8]; MOLT-4, 24 h): 96.5%; CC50 ([8]; MOLT-4, 48 h): 6.15 µM; Emax ([8]; MOLT-4, 48 h): 98.9%; CC50 ([8]; MOLT-4, 72 h): 5.27 µM; Emax ([8]; MOLT-4, 72 h): 99.2%; IC50 [9]: 15 nM; CC50 ([10]; MCF7, 24 h): > 100 µM; Emax ([10]; MCF7, 24 h): 21.6%; CC50 ([10]; MCF7, 48 h): 42.6 µM; Emax ([10]; MCF7, 48 h): 65.4%; CC50 ([10]; MCF7, 72 h): 38.4 µM; Emax ([10]; MCF7, 72 h): 75.4%; Emax [11]: 31.1%; CC50 [11]: no cytotoxic effect; CC50 at 48 h [12]: > 100 µM
O=C(NO)c1ccc(/C=N/NC(=O)c2cc(N3CCOCC3)nc(-c3cccc(O)c3)n2)cc1 [LASSBio-2208] | 67.6 | 5.44 | 67.4 | > 100 | 18.4 | > 100 | 39.3 | > 100 | 42.1 | high metabolic stability | 75.5 | 866 | 0.0008 | 20.61 | CNS− | 0.69 | 98.9 | > 50 | > 100 | 7.14 | Pe. Exp. BBB [5]: low permeation; Emax ([8]; MOLT-4, 24 h): 84.1%; CC50 ([8]; MOLT-4, 48 h): 8.26 µM; Emax ([8]; MOLT-4, 48 h): 83.2%; CC50 ([8]; MOLT-4, 72 h): 7.15 µM; Emax ([8]; MOLT-4, 72 h): 91.2%; IC50 [9]: 15.3 nM; CC50 ([10]; MCF7, 24 h): > 100 µM; Emax ([10]; MCF7, 24 h): 29.5%; CC50 ([10]; MCF7, 48 h): 31.7 µM; Emax ([10]; MCF7, 48 h): 57.3%; CC50 ([10]; MCF7, 72 h): 23 µM; Emax ([10]; MCF7, 72 h): 60.7%; Emax [11]: 29.9%; CC50 [11]: no cytotoxic effect; CC50 at 48 h [12]: > 100 µM
